For orientation: Ki means the equilibrium dissociation constant of an inhibitor or competing ligand from its target. A low value points to a stronger hold on the target. In general, mortality refers to the share of the test organisms that died. By inhibition is commonly meant the drop in the measured response relative to a control, in per cent.

The nature of assay [1]: Displacement of [3H]IMI from nicotinic acetylcholine receptor in Drosophila melanogaster brain.
The next assay relates to Aphis gossypii. Kind of assay: Insecticidal activity against adult Aphis gossypii (cotton aphid) in cucumber cotyledons assessed as mortality at 500 ppm treated for 5 secs before adult infestation measured after 72 hr. In kind it is functional. The conditions noted are these: in Cucumis sativus.
The next assay has as its system Drosophila melanogaster. Kind of assay: Displacement of [3H]IMI from nicotinic acetylcholine receptor in Drosophila melanogaster brain at Ki concentration. Background: Displacement assays read how much labelled ligand stays bound in the presence of the test substance.

Molecules are shown by their SMILES.

`C/C(CCN1CCN/C1=N\[N+](=O)[O-])=N\O` displayed a Ki in assay [1] of 40.5 µM. Besides, in the assay on Aphis gossypii, the mortality at 500 ppm came out at 10%.

Regarding `O=[N+]([O-])/N=C1\NCCN1CCCF`, the affinity in assay [1] corresponds to a Ki of 1.7 µM. For the same compound, the mortality at 500 ppm with Aphis gossypii amounted to 55%.

`CC(=O)O/C(=C\CN1CCN/C1=N\[N+](=O)[O-])C(F)(F)F` came in with a Ki in assay [1] of 16.3 µM.

In assay [1], `CCCN1CCN/C1=N\[N+](=O)[O-]` gave a Ki of 12.8 µM. For the same compound, the mortality at 500 ppm with Aphis gossypii amounted to 31%.

`O=[N+]([O-])/N=C1\N(CCC(O)C(F)(F)F)CCN1Cc1ccc(Cl)nc1` (stereo not given): the Ki in assay [1] came out at 5 µM.

Consider `O=[N+]([O-])/N=C1\NCCN1C[C@H]1C[C@@H]2O[C@@H]2C1`, for which, in assay [1], the affinity, expressed as Ki, was 14.8 µM. Besides, the mortality at 500 ppm in the assay with Aphis gossypii came to 18%.

As for `O=[N+]([O-])/N=C1\NCCN1CCC(O)C(F)(F)F` (stereo not given), affinity in assay [1] was put at a Ki of 18.1 µM.

As for `O=C(CCN1CCN/C1=N\[N+](=O)[O-])C(F)(F)F`, the Ki in assay [1] is not below 100 µM. Besides, in the assay on Aphis gossypii, the mortality at 500 ppm turned out to be 0%. In the assay on Drosophila melanogaster, the inhibition came to 43%.

For `CO/N=C(\C)CCN1CCN/C1=N\[N+](=O)[O-]`, in assay [1], the Ki was found to be 61.2 µM. For the same compound, in the assay with Aphis gossypii, the mortality at 500 ppm was determined as 2%.

Turning to `CCCN1CCN(Cc2ccc(Cl)nc2)/C1=N/[N+](=O)[O-]`, the affinity in assay [1] corresponds to a Ki of 0.89 µM.

`O=[N+]([O-])/N=C1\NCCN1C[C@@H]1C[C@@H]2O[C@@H]2C1`: the affinity in assay [1] corresponds to a Ki of 8.1 µM. The mortality at 500 ppm in the assay with Aphis gossypii stood at 0%.

On to `CN/C(=N\[N+](=O)[O-])NCc1cnc(Cl)s1` [CLOTHIANIDINE], for which, in assay [1], the affinity, expressed as Ki, was 0.004 µM. Further, in the assay with Aphis gossypii, the mortality at 500 ppm worked out at 100%.

In assay [1], `CN/C(=N/CC1CCOC1)N[N+](=O)[O-]` (stereo not given) [DINOTEFURAN] had a Ki of 0.076 µM. Also, in the assay with Aphis gossypii, the mortality at 500 ppm came to 100%.

Compound `CC(=O)CCN1CCN/C1=N\[N+](=O)[O-]` yielded a Ki in assay [1] of 1.2 µM. Besides, the mortality at 500 ppm in the assay with Aphis gossypii was 8%.

Turning to `O=[N+]([O-])/N=C1\N(CCCF)CCN1Cc1ccc(Cl)nc1`, the Ki in assay [1] was determined as 0.74 µM.

Compound `O=[N+]([O-])/N=C1\NCCN1CC1CC=CC1` displayed a Ki in assay [1] of 20.1 µM. In the assay with Aphis gossypii, the mortality at 500 ppm is 20%.

For `O=[N+]([O-])/N=C1\NCCN1CCCCF`, the Ki in assay [1] amounted to 3.5 µM. In the assay with Aphis gossypii, the mortality at 500 ppm is 27%.

In assay [1], `CC(=O)CCN1CCN(Cc2ccc(Cl)nc2)/C1=N/[N+](=O)[O-]` displayed a Ki of 6.1 µM.

On to `O=[N+]([O-])/N=C1\NCCN1Cc1ccc(Cl)nc1` [IMIDACLOPRID], for which affinity in assay [1] was put at a Ki of 0.003 µM. For the same compound, the mortality at 500 ppm in the assay on Aphis gossypii amounted to 100%.

Turning to `O=[N+]([O-])/N=C1\NCCN1CCCCl`, in assay [1], the Ki is 3.6 µM. Further, in the assay on Aphis gossypii, the mortality at 500 ppm is 55%.

Take `O=[N+]([O-])/N=C1\NCCN1CCF`: in assay [1], the Ki is not below 100 µM. Besides, in the assay with Aphis gossypii, the mortality at 500 ppm was determined as 47%. This compound had an inhibition in the assay on Drosophila melanogaster of 44%.

`O=[N+]([O-])/N=C1\NCCN1CC1CCOC1` (stereo not given) had a Ki in assay [1] of 0.11 µM. In the assay on Aphis gossypii, the mortality at 500 ppm stood at 100%.

The values above are taken from ChEMBL document CHEMBL3046299, “Neonicotinoid substituents forming a water bridge at the nicotinic acetylcholine receptor” (J Agric Food Chem, 2009).
